# According to the supplement of paper PMC11061612:
# Columns and labels:
# Assay in all cases: combination Emax (second highest fraction inhibited in the dose matrix, 72 h); higher = more inhibition; extreme values may be limits of the assay
# BE2-M17 (Neuroblastoma) = tested on: BE2-M17 (Neuroblastoma)
# Summary of the method: (§1)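 Bliss excess equals the observed combination effect minus the expected value EA + EB − EA·EB, where EA and EB are the effects of each agent alone. Combination Emax is the second-highest inhibition within the matrix. Inhibition was scaled from CellTiter-Glo 2.0 luminescence, with 0 set by vehicle wells and 1 by blank wells, after 72 hours of two-drug dosing of cells plated in 1536-well plates.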
# BPH-1 (Non-Cancerous) = tested on: BPH-1 (Non-Cancerous)
# Summary of the method: as §1
# [1] = tested on: CAL-33 (Oral Cavity Carcinoma)
# Summary of the method: as §1
# [2] = tested on: Detroit562 (Head and Neck Carcinoma)
# Summary of the method: as §1
# [3] = tested on: FTC-133 (Thyroid Gland Carcinoma)
# Summary of the method: as §1
# [4] = tested on: HH (T-Cell Non-Hodgkin's Lymphoma)
# Summary of the method: as §1
# [5] = tested on: HeLa (Cervical Carcinoma)
# Summary of the method: as §1
# [6] = tested on: HuH-7 (Hepatocellular Carcinoma)
# Summary of the method: as §1
# [7] = tested on: LNZTA3WT4 (Low Grade Glioma)
# Summary of the method: as §1
# LOXIMVI (Melanoma) = tested on: LOXIMVI (Melanoma)
# Summary of the method: as §1
# [8] = tested on: MHH-CALL-2 (B-Lymphoblastic Leukemia)
# Summary of the method: as §1
# MPP-89 (Mesothelioma) = tested on: MPP-89 (Mesothelioma)
# Summary of the method: as §1
# [9] = tested on: NCI-H1568 (Lung Adenocarcinoma)
# Summary of the method: as §1
# NCI-H2722 (Mesothelioma) = tested on: NCI-H2722 (Mesothelioma)
# Summary of the method: as §1
# [10] = tested on: NCI-H524 (Small Cell Lung Carcinoma)
# Summary of the method: as §1
# [11] = tested on: OV-56 (Ovarian Carcinoma)
# Summary of the method: as §1
# [12] = tested on: OVCAR-5 (Ovarian Carcinoma)
# Summary of the method: as §1
# [13] = tested on: SNU-16 (Gastric Carcinoma)
# Summary of the method: as §1
# [14] = tested on: SNU-449 (Hepatocellular Carcinoma)
# Summary of the method: as §1
# [15] = tested on: SW1573 (Lung Adenocarcinoma)
# Summary of the method: as §1
Compound,combination Emax (BE2-M17 (Neuroblastoma)),combination Emax (BPH-1 (Non-Cancerous)),combination Emax [1],combination Emax [2],combination Emax [3],combination Emax [4],combination Emax [5],combination Emax [6],combination Emax [7],combination Emax (LOXIMVI (Melanoma)),combination Emax [8],combination Emax (MPP-89 (Mesothelioma)),combination Emax [9],combination Emax (NCI-H2722 (Mesothelioma)),combination Emax [10],combination Emax [11],combination Emax [12],combination Emax [13],combination Emax [14],combination Emax [15]
"CN(CCO)CC[C@H](CSc1ccccc1)Nc1ccc(S(=O)(=O)NC(=O)c2ccc(N3CCC([C@@H](O)c4ccccc4-c4ccc(Cl)cc4)CC3)cc2)cc1S(=O)(=O)C(F)(F)F [AZD4320] + C[C@@H]1COCCN1C2=NC(=NC(=C2)C3(CC3)[S@](=N)(=O)C)C4=C5C=CNC5=NC=C4 [AZD6738] (first compound max 1 µM, 7x7, partner max 10 µM)",0.93,0.441,0.964,0.905,0.947,0.404,0.717,0.725,0.804,0.892,0.921,0.794,0.522,0.503,0.939,0.836,0.842,0.994,0.19,0.555
"CN(CCO)CC[C@H](CSc1ccccc1)Nc1ccc(S(=O)(=O)NC(=O)c2ccc(N3CCC([C@@H](O)c4ccccc4-c4ccc(Cl)cc4)CC3)cc2)cc1S(=O)(=O)C(F)(F)F [AZD4320] + C[C@@H](Nc1cc(F)cc(F)c1)c1cc(C(=O)N(C)C)cc2c(=O)cc(N3CCOCC3)oc12 [AZD8186] (first compound max 1 µM, 7x7, partner max 3 µM)",0.722,0.733,0.714,0.666,0.803,0.455,0.359,0.583,0.247,0.507,0.917,0.494,0.344,0.555,0.892,0.277,0.351,0.658,0.313,0.577
"CN(CCO)CC[C@H](CSc1ccccc1)Nc1ccc(S(=O)(=O)NC(=O)c2ccc(N3CCC([C@@H](O)c4ccccc4-c4ccc(Cl)cc4)CC3)cc2)cc1S(=O)(=O)C(F)(F)F [AZD4320] + Cn1cnc2c(F)c(Nc3ccc(Br)cc3Cl)c(C(=O)NOCCO)cc21 [Selumetinib] (first compound max 1 µM, 7x7, partner max 3 µM)",0.852,0.784,0.701,0.637,0.74,0.3,0.397,0.55,0.329,0.689,0.965,0.399,0.444,0.508,0.84,0.304,0.613,0.649,0.221,0.575
"COc1nnc2ccc(N3CCC(c4ccc(OCCN5CCN(C)C(=O)[C@H]5C)cc4)CC3)nn12 [AZD5153] + C=CCn1c(=O)c2cnc(Nc3ccc(N4CCN(C)CC4)cc3)nc2n1-c1cccc(C(C)(C)O)n1 [AZD1775] (first compound max 1 µM, partner max 1 µM)",0.964,0.88,0.724,0.823,0.837,0.47,0.54,0.682,0.643,0.892,0.742,0.482,0.438,0.58,0.908,0.279,0.563,0.871,0.249,0.544
"Cc1c2c(nn1C)CSCc1cc(n(C)n1)CSc1cc(c3ccccc3c1)OCCCc1c(C(=O)O)n(C)c3c-2c(Cl)ccc13 [AZD5991] + CC1(C)CCC(CN2CCN(c3ccc(C(=O)NS(=O)(=O)c4ccc(NCC5CCOCC5)c([N+](=O)[O-])c4)c(Oc4cnc5[nH]ccc5c4)c3)CC2)=C(c2ccc(Cl)cc2)C1 [Venetoclax] (first compound max 1 µM, 7x7, partner max 1 µM)",0.915,0.353,–,0.156,0.677,0.858,0.794,0.306,0.203,0.229,0.983,0.171,0.248,0.122,0.629,0.173,0.159,0.994,0.23,0.177
